Assays:
[1] = Plasma concentrations of clobetasol propionate (PK blood samples); assay type: in vivo, human
Experimental: These investigational products were applied twice daily to all affected areas on the body excluding face, scalp, groin, axillae and other intertriginous areas. The subjects had 20 to 50% BSA treated to achieve maximal use exposure. The subjects were visited Screening, Baseline (Day 1), Day 8, Day 15 and Day 43 (if needed to confirm recovery). Clinical determinations of disease severity was conducted using the Investigator Global Assessment (IGA) for overall severity at each visit. Subjects were tested for HPA axis function using the ACTH stimulation test (i.e., a cosyntropin i.v. or i.m. injection) at the Screening Visit (at least 14 days and no more than 28 days prior to Baseline) and at Day 15. In addition, blood samples for serum dehydroepiandrosterone sulfate (DHEAS) was taken at Screening, on Day 8 and at the time of the ACTH stimulation test on Day 15 (pre-test sample) as a secondary measure of HPA axis suppression. At the time of the screening ACTH stimulation test, a PK blood sample was taken to obtain a baseline value (PK screening sample). On Day 15, subjects were applied the last dose of study product at the clinic up to 60 minutes after a pre-treatment PK blood sample was taken (0 hour-Day 15). PK blood samples was then collected at 1, 3 and 6 hours (±5 minutes) after application of the study product.
Subjects had applied study product to all affected areas except the face, scalp, groin, axillae and other intertriginous areas. The target dose was at least 5 to 7 g per day (1 teaspoon of cream, twice daily, applied at approximately 1 mg/cm2 on 20% BSA—3000 cm2). All baseline affected areas and newly affected areas have been treated until the end of the study even if cleared. The investigator had marked the affected areas (in the source document), updated the marking at each visit, and reminded the subjects where study product was to be applied at each visit using the marking. Study product have been applied directly onto affected areas and rubbed in gently and completely. Study product have been applied after bathing, if applicable.

HPA axis = conditions: topical; cited from earlier work
[2] = Average of Post-Treatment, subjects With HPA Axis Suppression
[3] = Average of Post-Treatment, subjects Without HPA Axis Suppression
[4] = Day 15: 1 Hour, subjects With HPA Axis Suppression
[5] = Day 15: 1 Hour, subjects Without HPA Axis Suppression
[6] = Day 15: 3 Hours, subjects With HPA Axis Suppression
[7] = Day 15: 3 Hours, subjects Without HPA Axis Suppression
[8] = Day 15: 6 Hours, subjects With HPA Axis Suppression
[9] = Day 15: 6 Hours, subjects Without HPA Axis Suppression
[10] = Day 15: Pre-Treatment (0 hour), subjects With HPA Axis Suppression
[11] = Day 15: Pre-Treatment (0 hour), subjects Without HPA Axis Suppression
[12] = Screening, subjects With HPA Axis Suppression (both creams pooled)
[13] = Screening, subjects Without HPA Axis Suppression (both creams pooled)

## CCC(=O)O[C@]1(C(=O)CCl)[C@@H](C)C[C@H]2[C@@H]3CCC4=CC(=O)C=C[C@]4(C)[C@@]3(F)[C@@H](O)C[C@@]21C [Clobetasol Propionate, [17-(2′-chloroacetyl)-9-fluoro-11-hydroxy-10,13,16-trimethyl-3-oxo-6,7,8,11,12,14,15,16-octahydrocyclopenta[a]phenanthren-17-yl] propanoate]
[1]; [2]
  Plasma Concentration of Clobetasol Propionate, Mean ± SD: 0.217123 ± 0.1537979 ng/mL
  Plasma Concentration of Clobetasol Propionate, Median: 0.185565 ng/mL
[1]; [3]
  Plasma Concentration of Clobetasol Propionate, Mean ± SD: 0.071244 ± 0.1060424 ng/mL
  Plasma Concentration of Clobetasol Propionate, Median: 0.03174 ng/mL
[1]; [4]
  Plasma Concentration of Clobetasol Propionate, Mean ± SD: 0.210873 ± 0.1962904 ng/mL
  Plasma Concentration of Clobetasol Propionate, Median: 0.15588 ng/mL
[1]; [5]
  Plasma Concentration of Clobetasol Propionate, Mean ± SD: 0.081012 ± 0.1512306 ng/mL
  Plasma Concentration of Clobetasol Propionate, Median: 0.03173 ng/mL
[1]; [6]
  Plasma Concentration of Clobetasol Propionate, Mean ± SD: 0.200668 ± 0.1260445 ng/mL
  Plasma Concentration of Clobetasol Propionate, Median: 0.19545 ng/mL
[1]; [7]
  Plasma Concentration of Clobetasol Propionate, Mean ± SD: 0.067637 ± 0.1039073 ng/mL
  Plasma Concentration of Clobetasol Propionate, Median: 0.033185 ng/mL
[1]; [8]
  Plasma Concentration of Clobetasol Propionate, Mean ± SD: 0.205386 ± 0.1474279 ng/mL
  Plasma Concentration of Clobetasol Propionate, Median: 0.17805 ng/mL
[1]; [9]
  Plasma Concentration of Clobetasol Propionate, Mean ± SD: 0.065451 ± 0.0915422 ng/mL
  Plasma Concentration of Clobetasol Propionate, Median: 0.03626 ng/mL
[1]; [10]
  Plasma Concentration of Clobetasol Propionate, Mean ± SD: 0.195691 ± 0.1507514 ng/mL
  Plasma Concentration of Clobetasol Propionate, Median: 0.13649 ng/mL
[1]; [11]
  Plasma Concentration of Clobetasol Propionate, Mean ± SD: 0.055406 ± 0.1003403 ng/mL
  Plasma Concentration of Clobetasol Propionate, Median: 0.02623 ng/mL
[1]; [12]
  Plasma Concentration of Clobetasol Propionate, Mean ± SD: 0 ± 0 ng/mL
  Plasma Concentration of Clobetasol Propionate, Median: 0 ng/mL
[1]; [13]
  Plasma Concentration of Clobetasol Propionate, Mean ± SD: 0.001282 ± 0.0075844 ng/mL
  Plasma Concentration of Clobetasol Propionate, Median: 0 ng/mL
[1]; Table 8, both creams pooled
  Mean plasma clobetasol levels, subjects with HPA axis suppression relative to those without: more than 3 times
HPA axis
  Lowest dose at which the HPA axis is suppressed: 2 grams per day

Source: US11179465B2, “Topical compositions comprising a corticosteroid” (PRIMUS PHARMACEUTICALS, INC., priority 2014, dated 2021)
